Data: US20200181104A1, “SSAO INHIBITORS AND USES THEREOF” (METACRINE, INC., priority 2018, published 2020)

Biological target: T1, Recombinant Human SSAO/VAP-1/AOC3 (Homo sapiens, UniProt Q16853)
T1 construct: purchased R&D systems 3957-AO
T1 sequence (Q16853 1-763): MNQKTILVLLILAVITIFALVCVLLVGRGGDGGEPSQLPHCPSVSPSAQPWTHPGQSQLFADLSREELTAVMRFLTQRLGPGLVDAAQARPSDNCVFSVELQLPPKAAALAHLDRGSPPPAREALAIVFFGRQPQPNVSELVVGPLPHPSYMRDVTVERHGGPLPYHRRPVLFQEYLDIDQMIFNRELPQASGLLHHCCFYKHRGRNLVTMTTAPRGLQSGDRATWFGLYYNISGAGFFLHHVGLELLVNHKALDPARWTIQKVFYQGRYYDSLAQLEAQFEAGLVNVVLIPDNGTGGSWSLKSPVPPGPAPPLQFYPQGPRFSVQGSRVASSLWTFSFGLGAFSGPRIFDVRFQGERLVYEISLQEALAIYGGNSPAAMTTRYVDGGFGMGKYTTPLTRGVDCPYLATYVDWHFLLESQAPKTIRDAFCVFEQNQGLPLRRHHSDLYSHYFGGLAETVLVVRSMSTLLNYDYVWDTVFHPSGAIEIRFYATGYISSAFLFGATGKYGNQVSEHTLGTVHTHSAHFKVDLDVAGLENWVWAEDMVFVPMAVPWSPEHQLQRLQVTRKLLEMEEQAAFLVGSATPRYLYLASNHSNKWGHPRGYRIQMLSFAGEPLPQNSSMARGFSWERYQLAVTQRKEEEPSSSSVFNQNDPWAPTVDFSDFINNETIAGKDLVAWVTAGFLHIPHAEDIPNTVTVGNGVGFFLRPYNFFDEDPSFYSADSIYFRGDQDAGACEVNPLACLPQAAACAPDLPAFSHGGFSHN
Assay: Human Semicarbazide-Sensitive Amine Oxidase (SSAO) Assay
Type: biochemical
Details: recombinant enzyme, 30 minutes preincubation at 37° C., benzylamine substrate, Amplex Ultra Red/HRP fluorescence
Method: Compounds were dissolved in DMSO to provide a Concentration Response Curve (CRC; at 500 times the final concentration) over a range of 6-10 dilutions.
Recombinant Human SSAO/VAP-1/AOC3 (R&D systems; Catalog #3957-AO) was used to screen compound potency in vitro, according to previously described methods (J Pharmacol Exp Ther. 2013 November; 347(2):365-74). SSAO enzyme was suspended in 50 mM HEPES buffer to a working concentration of 2.5 μg/ml and 40 μL of this enzyme mixture was then added to each well of a F16 Black Maxisorp 96 well Plate (Nunc, Catalog #475515). Ten microliters of each test compound (at 5 times the final concentration) were added to each well, resulting in a final well volume of 50 μL of the enzyme and inhibitor mixture. The compounds were preincubated with the enzyme for 30 minutes at 37° C., prior to the addition of a 40 μL volume of Amplex Ultra Red (125 uM AUR; Molecular Probes, Catalog # A36006)/Horseradish peroxidase (2.5 U/ml HRP; Sigma-Aldrich Catalog # P8375) oxidase detection reagent containing cytochrome C ([…]; Sigma-Aldrich Catalog # C7752). Cytochrome C was included in the AUR/HRP detection mixture to reduce the background fluorescence that can occur via the spontaneous redox reaction between AUR and HRP. The SSAO enzyme reaction was then initiated by adding 10 μL of the SSAO substrate, benzylamine (Sigma-Aldrich Catalog # B5136), and SSAO activity was measured in kinetic mode over a 30-120 minute sampling period (excit. 544 nm; emit 590 nm; cut off 570 nm; medium gain) to obtain IC50 values for enzyme activity in each treatment well.

SMILES | IC50 [nM]
NC/C(=C\F)COc1ccc(C23CCC(C(=O)N4CCN(CC(F)(F)F)CC4)(CC2)CC3)cc1 [Compound 2.30, (E)-(4-(4-((2-(aminomethyl)-3-fluoroallyl)oxy)phenyl)bicyclo [2.2.2]octan-1-yl)(4-(2,2,2-trifluoroethyl)piperazin-1-yl)methanone] | ≤ 10
CC(=O)N1CCN(C(=O)C23CCC(c4ccc(OC/C(=C/F)CN)cc4)(CC2)CC3)CC1 [Compound 2.31, (E)-1-(4-(4-(4-((2-(aminomethyl)-3-fluoroallyl)oxy)phenyl)bicyclo [2.2.2]octane-1-carbonyl)piperazin-1-yl)ethanone] | ≤ 10
COCCOCCNC(=O)C12CCC(c3ccc(OC/C(=C/F)CN)cc3)(CC1)CC2 [Compound 2.32, (E)-4-(4-((2-(aminomethyl)-3-fluoroallyl)oxy)phenyl)-N-(2-(2-methoxyethoxy)ethyl) bicyclo[2.2.2]octane-1-carboxamide] | ≤ 10
NC/C(=C\F)COc1ccc(C23CCC(C(=O)NCC4(F)CCOCC4)(CC2)CC3)cc1 [Compound 2.33, (E)-4-(4-((2-(aminomethyl)-3-fluoroallyl)oxy)phenyl)-N-((4-fluorotetrahydro-2H-pyran-4-yl)methyl)bicyclo[2.2.2]octane-1-carboxamide] | ≤ 10
CC(C)(CO)NC(=O)C12CCC(c3ccc(OC/C(=C/F)CN)cc3)(CC1)CC2 [Compound 2.34, (E)-4-(4-((2-(aminomethyl)-3-fluoroallyl)oxy)phenyl)-N-(1-hydroxy-2-methylpropan-2-yl)bicyclo[2.2.2]octane-1-carboxamide] | ≤ 10
NC/C(=C\F)COc1ccc(C23CCC(C(=O)NCC4(O)CCOCC4)(CC2)CC3)cc1 [Compound 2.35, (E)-4-(4-((2-(aminomethyl)-3-fluoroallyl)oxy)phenyl)-N-((4-hydroxytetrahydro-2H-pyran-4-yl)methyl)bicyclo[2.2.2]octane-1-carboxamide] | ≤ 10
CC1(CNC(=O)C23CCC(c4ccc(OC/C(=C/F)CN)cc4)(CC2)CC3)CCOCC1 [Compound 2.36, (E)-4-(4-((2-(aminomethyl)-3-fluoroallyl)oxy)phenyl)-N-((4-methyltetrahydro-2H-pyran-4-yl)methyl)bicyclo[2.2.2]octane-1-carboxamide] | ≤ 10
CN(C)C(=O)CCNC(=O)C12CCC(c3ccc(OC/C(=C/F)CN)cc3)(CC1)CC2 [Compound 2.37, (E)-4-(4-((2-(aminomethyl)-3-fluoroallyl)oxy)phenyl)-N-(3-(dimethylamino)-3-oxopropyl)bicyclo[2.2.2]octane-1-carboxamide] | ≤ 10
CC(C)N(CCO)C(=O)C12CCC(c3ccc(OC/C(=C/F)CN)cc3)(CC1)CC2 [Compound 2.38, (E)-4-(4-((2-(aminomethyl)-3-fluoroallyl)oxy)phenyl)-N-(2-hydroxyethyl)-N-isopropylbicyclo[2.2.2]octane-1-carboxamide] | ≤ 10
COC1CN(C(=O)C23CCC(c4ccc(OC/C(=C/F)CN)cc4)(CC2)CC3)C1 [Compound 2.39, (E)-(4-(4-((2-(aminomethyl)-3-fluoroallyl)oxy)phenyl)bicyclo [2.2.2]octan-1-yl)(3-methoxyazetidin-1-yl)methanone] | ≤ 10
NC/C(=C\F)COc1ccc(C23CCC(C(=O)N4CCC4)(CC2)CC3)cc1 [Compound 2.40, (E)-(4-(4-((2-(aminomethyl)-3-fluoroallyl)oxy)phenyl)bicyclo [2.2.2]octan-1-yl)(azetidin-1-yl)methanone] | ≤ 10
NC/C(=C\F)COc1ccc(C23CCC(C(=O)NC4(C5CCOCC5)CC4)(CC2)CC3)cc1 [Compound 2.41, (E)-4-(4-((2-(aminomethyl)-3-fluoroallyl)oxy)phenyl)-N-(1-(tetrahydro-2H-pyran-4-yl)cyclopropyl)bicyclo[2.2.2] octane-1-carboxamide] | ≤ 10
CC1(C)CC(NC(=O)C23CCC(c4ccc(OC/C(=C/F)CN)cc4)(CC2)CC3)CCO1 (stereo not shown) [Compound 2.42, (E)-4-(4-((2-(aminomethyl)-3-fluoroallyl)oxy)phenyl)-N-(2,2-dimethyltetrahydro-2H-pyran-4-yl)bicyclo[2.2.2]octane-1-carboxamide] | ≤ 10
NC/C(=C\F)COc1ccc(C23CCC(C(=O)N4CC(CO)C4)(CC2)CC3)cc1 [Compound 2.43, (E)-(4-(4-((2-(aminomethyl)-3-fluoroallyl)oxy)phenyl)bicyclo [2.2.2]octan-1-yl)(3-(hydroxymethyl)azetidin-1-yl)methanone] | ≤ 10
NC/C(=C\F)COc1ccc(C23CCC(C(=O)N4CC(OCCO)C4)(CC2)CC3)cc1 [Compound 2.44, (E)-(4-(4-((2-(aminomethyl)-3-fluoroallyl)oxy)phenyl)bicyclo [2.2.2]octan-1-yl)(3-(2-hydroxyethoxy)azetidin-1-yl)methanone] | ≤ 10
Cc1cnc(CCNC(=O)C23CCC(c4ccc(OC/C(=C/F)CN)cc4)(CC2)CC3)o1 [Compound 2.45, (E)-4-(4-((2-(aminomethyl)-3-fluoroallyl)oxy)phenyl)-N-(2-(5-methyloxazol-2-yl)ethyl)bicyclo[2.2.2]octane-1-carboxamide] | ≤ 10
NC/C(=C\F)COc1ccc(C23CCC(C(=O)NC4CCC(F)(F)CC4)(CC2)CC3)cc1 [Compound 2.46, (E)-4-(4-((2-(aminomethyl)-3-fluoroallyl)oxy)phenyl)-N-(4,4-difluorocyclohexyl)bicyclo [2.2.2]octane-1-carboxamide] | ≤ 10
NC/C(=C\F)COc1ccc(C23CCC(C(=O)NCCO)(CC2)CC3)cc1 [Compound 2.47, (E)-4-(4-((2-(aminomethyl)-3-fluoroallyl)oxy)phenyl)-N-(2-hydroxyethyl)bicyclo[2.2.2] octane-1-carboxamide] | ≤ 10
CC(C)(O)CNC(=O)C12CCC(c3ccc(OC/C(=C/F)CN)cc3)(CC1)CC2 [Compound 2.48, (E)-4-(4-((2-(aminomethyl)-3-fluoroallyl)oxy)phenyl)-N-(2-hydroxy-2-methylpropyl)bicyclo[2.2.2] octane-1-carboxamide] | ≤ 10
CC(C)(C)NC(=O)C12CCC(c3ccc(OC/C(=C/F)CN)cc3)(CC1)CC2 [Compound 2.49, (E)-4-(4-((2-(aminomethyl)-3-fluoroallyl)oxy)phenyl)-N-(tert-butyl)bicyclo[2.2.2]octane-1-carboxamide] | ≤ 10
NC/C(=C\F)COc1ccc(C23CCC(C(=O)N4CCCOCC4)(CC2)CC3)cc1 [Compound 2.50, (E)-(4-(4-((2-(aminomethyl)-3-fluoroallyl)oxy)phenyl)bicyclo [2.2.2]octan-1-yl)(1,4-oxazepan-4-yl)methanone] | ≤ 10
COCCOCCOCCOCCNC(=O)C12CCC(c3ccc(OC/C(=C/F)CN)cc3)(CC1)CC2 [Compound 2.51, (E)-4-(4-((2-(aminomethyl)-3-fluoroallyl)oxy)phenyl)-N-(2,5,8,11-tetraoxatridecan-13-yl)bicyclo[2.2.2]octane-1-carboxamide] | ≤ 10
CC1(C)CN(C(=O)C23CCC(c4ccc(OC/C(=C/F)CN)cc4)(CC2)CC3)C1 [Compound 2.52, (E)-(4-(4-((2-(aminomethyl)-3-fluoroallyl)oxy)phenyl)bicyclo [2.2.2]octan-1-yl)(3,3-dimethylazetidin-1-yl)methanone] | ≤ 10
NC/C(=C\F)COc1ccc(C23CCC(C(=O)N4CC(O)(C(F)(F)F)C4)(CC2)CC3)cc1 [Compound 2.53, (E)-(4-(4-((2-(aminomethyl)-3-fluoroallyl)oxy)phenyl)bicyclo [2.2.2]octan-1-yl)(3-hydroxy-3-(trifluoromethyl)azetidin-1-yl)methanone] | ≤ 10
CN(CCO)C(=O)C12CCC(c3ccc(OC/C(=C/F)CN)cc3)(CC1)CC2 [Compound 2.54, (E)-4-(4-((2-(aminomethyl)-3-fluoroallyl)oxy)phenyl)-N-(2-hydroxyethyl)-N-methylbicyclo[2.2.2]octane-1-carboxamide] | ≤ 10
